# “Also recorded” adds a separate entry of the source.
# Key:
# Type in all cases: cell-based
# [1] = test system: normal human peripheral blood mononuclear cells (PBMCs); experiment: IFN-γ production by PBMCs stimulated with Anti-CD3 (ELISA); settings: PBMCs treated with anti-CD3 (1 μg/ml); icariside I 1, 10, 100 ng/ml; 12-48 h; time and dose dependent
# Description: (§1) Effect of icariside I on promoting normal human peripheral blood mononuclear cells (PBMCs subjected to mAb treatment) to produce γ-interferon (interferon-gamma, IFN-γ) (an experimental model mimicking enhancing immunity in human body).
# (§2) (1) Preparation of icariside I solution for the test. 10 mg icariside I was dissolved in 1 ml DMSO (with initial concentration of 10 mg/ml). The solution was then transferred into small vials and stored in a freezer at −80° C. for future use.
# (§3) The whole blood samples were drawn from peripheral vein of healthy volunteers. Heparin (blood:heparin=10 ml: 80 μl) was used for anticoagulation. Then, it is diluted with equal volume of Hank's solution. The diluted blood samples were slowly laid on the Ficoll separation solution (Ficoll to diluted blood ratio is 3:4) followed by Ficoll density gradient centrifugation (22° C. 2200 r/min, 20 min). After centrifugation, samples were divided into three layers in the tube. At the interface between the top and middle layers, there was a narrow band which is a mononuclear cell-based yellow-white cloud layer. The peripheral blood mononuclear cells (PBMCs) were drawn and transferred into another centrifuge tube with a pipette. […] The mononuclear cells were counted with trypan blue solution. […]
# (§4) The collected cell culture supernatants with different culture time were detected with ELISA to measure the amount of cytokine IFN-γ produced. […]
# [2] = test system: normal human peripheral blood mononuclear cells (PBMCs); experiment: IFN-γ production by PBMCs stimulated with Anti-CD3/Anti-CD28 (ELISA); settings: PBMCs treated with anti-CD3 and anti-CD28 (1 μg/ml each); icariside I 1, 10, 100 ng/ml; 12-48 h; dose-dependent
# Description: as §1, §2, §3, §4
# [3] = test system: PBMCs from healthy human; experiment: IFN-γ production by PBMCs of healthy human cultured with icariside I (Example 9); settings: 0.1, 0.5, 1 μg/ml, 48 h
# Description: (1) Isolation of human peripheral blood mononuclear cells (PBMCs): according to the method stated in Example 5 (2), normal human peripheral blood PBMCs were prepared.
# (3) PBMCs and PFMCs cell culture (MLC) with stimulation by a pharmaceutical: Icariside I was used at concentrations of 0.1 μg/ml, 0.5 μg/ml, and 1 μg/ml respectively to stimulate PBMCs and PFMCs under the incubation condition at 37° C. with 5% CO2 for 48 hours.
# (4) ELISA assay for analysis of IFN-γ: according to the method stated in Example 5 (4), the levels of γ-interferon produced by PBMCs and PFMCs after culture with pharmaceutical stimulations were measured.
# PBMCs from healthy human and PFMCs from TB infected patients were respectively cultured for 2 days (48 h), then added or not added with the pharmaceutical icariside I (at a gradient of different concentrations). […] Among the tests, the concentrations of icariside I added were 0.1, 0.5 and 1 μg/ml. *P<0.05; **-***P<0.01.
# [4] = test system: human peripheral blood mononuclear cells (PBMCs); experiment: Immunological screening model: IFN-γ produced in human PBMCs
# From the text: The present inventors have long been researching the active components in traditional Chinese herbal medicine and their applications in immunotherapy. The present inventors have established an immunological test model based on determination of the level of IFN-γ produced in human peripheral blood mononuclear cells (PBMCs). By this model, compounds having promotion (or inhibition) effects on human peripheral blood mononuclear cells (PBMCs) to produce γ-interferon can be screened out from chemical components from various sources including traditional Chinese herbal medicine, medicinal plants and so on. Since the γ-Interferon is an important protein (cytokine) in human body's immune system to resist attacks from diseases, its production level in body directly relates to the body's immunity. Therefore, the model is an ideal tool to screen and find functional pharmaceuticals for improving human immunity.
# In addition, all the results and achievements of the present invention are based on the very effective screening model established by the present inventors. Therefore, a further objective of the present invention is to provide an experimental model for screening substances having impacts (either enhance or inhibit) on immunity. […] Finally, by using ELISA techniques, the levels of IFN-γ produced in the culture were measured at different incubation time. […]
smiles,measurement,setting,value
COc1ccc(-c2oc3c(CC=C(C)C)c(O[C@@H]4O[C@H](CO)[C@@H](O)[C@H](O)[C@H]4O)cc(O)c3c(=O)c2O)cc1 [icariside I],IFN-γ level produced by PBMCs,[1],significantly enhanced; also recorded: significantly increased
same,IFN-γ level produced by PBMCs,[2],significantly enhanced
same,effect on PBMCs in producing IFN-γ,[3],no significant promoting effect
same,effect in promoting PBMCs to generate IFN-γ,[4],significant effect

# Reference: patent publication US11117919B2, “Icariside compound, preparation method thereof, and application thereof” (FOSHAN GOLDEN HEALTH TECHNOLOGY CO., LTD., priority 2015, dated 2021)
